The results in this text go back to ChEMBL document CHEMBL4190175 (Medchemcomm, 2016).

Calls of active or inactive are those of the source. The calls are words filed in the database; no cut-off is given here.

Series [1] can be described thus: Passive permeability of the compound in RRCK cells. Type of series: ADME, cell-based, Canis lupus familiaris, MDCKII-LE. The settings on record: dog, MDCK; read-out: permeability.
Series [2] is described as follows: Stability in human liver microsomes assessed as metabolic turnover number at 10 uM after 15 mins by LC-MS/UV analysis. The following applies: read-out: Stability. Format: ADME, microsome.
For series [3], the target named is T1, Transient receptor potential cation channel subfamily A member 1 (Homo sapiens, UniProt O75762). Kind of series: Antagonist activity at full length human TRPA1 expressed in 293-T-REx cells by FLIPR assay.
T1 sequence (O75762 whole entry): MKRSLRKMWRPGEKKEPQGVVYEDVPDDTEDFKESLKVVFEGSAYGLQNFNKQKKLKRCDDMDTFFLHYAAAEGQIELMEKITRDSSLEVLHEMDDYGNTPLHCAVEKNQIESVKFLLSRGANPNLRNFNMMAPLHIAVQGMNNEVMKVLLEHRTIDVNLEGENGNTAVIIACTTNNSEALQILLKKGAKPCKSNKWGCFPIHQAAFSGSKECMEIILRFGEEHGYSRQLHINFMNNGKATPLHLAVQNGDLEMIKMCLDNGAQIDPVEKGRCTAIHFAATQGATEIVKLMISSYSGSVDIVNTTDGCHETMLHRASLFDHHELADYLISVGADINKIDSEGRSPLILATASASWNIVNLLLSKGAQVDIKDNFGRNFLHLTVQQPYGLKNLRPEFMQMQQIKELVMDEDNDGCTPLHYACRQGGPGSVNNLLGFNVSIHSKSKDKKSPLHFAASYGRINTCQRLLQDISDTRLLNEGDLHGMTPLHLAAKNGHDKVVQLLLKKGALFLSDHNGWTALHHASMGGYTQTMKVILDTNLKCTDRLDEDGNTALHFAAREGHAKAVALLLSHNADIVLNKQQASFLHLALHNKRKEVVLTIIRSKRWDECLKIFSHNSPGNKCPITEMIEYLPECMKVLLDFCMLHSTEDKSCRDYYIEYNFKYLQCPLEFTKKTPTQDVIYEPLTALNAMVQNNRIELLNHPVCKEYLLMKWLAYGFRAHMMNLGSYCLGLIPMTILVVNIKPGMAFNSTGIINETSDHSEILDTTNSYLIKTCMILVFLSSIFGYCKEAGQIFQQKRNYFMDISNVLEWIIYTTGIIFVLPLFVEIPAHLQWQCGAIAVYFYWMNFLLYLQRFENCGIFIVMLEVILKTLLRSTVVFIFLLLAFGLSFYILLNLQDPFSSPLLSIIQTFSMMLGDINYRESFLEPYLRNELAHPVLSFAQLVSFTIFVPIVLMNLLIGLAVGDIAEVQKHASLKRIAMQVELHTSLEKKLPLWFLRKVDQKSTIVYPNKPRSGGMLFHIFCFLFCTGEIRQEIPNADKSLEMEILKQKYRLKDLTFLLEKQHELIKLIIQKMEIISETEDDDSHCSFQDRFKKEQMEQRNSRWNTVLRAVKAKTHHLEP
Series [4] has as its target T1, Transient receptor potential cation channel subfamily A member 1. Kind of series: Antagonist activity at full length human TRPA1 at holding potential of 15 mV measured after 1 min by PatchXpress electrophysiology assay.
Series [5] in a line: Ratio of permeability from basolateral to apical side over apical to basolateral side in RRCK cells expressing MDR1. Type of series: ADME, cell-based, Canis lupus familiaris. The settings on record: dog, mdckii-le.
Series [6] in a line: Lipophilicity, log D of the compound. Type of series: physicochemical. The following applies: octanol/water.
The subject of series [7] is Rattus norvegicus. Kind of series: Suppression of cinnamaldehyde-induced flare response in Sprague-Dawley rat skin at 50 to 100 mg/kg administered topically measured after 30 to 90 mins by recording blood flow for 30 mins by laser Doppler sonography method. Type of series: functional, organism-based.
In series [8] the test system is Rattus norvegicus. Nature of the series: Suppression of cinnamaldehyde-induced flare response in Sprague-Dawley rat skin at 50 to 100 mg/kg administered topically preincubated for 30 to 90 mins measured by recording blood flow for 30 mins by laser Doppler sonography method. Type of series: functional, organism-based.
Series [9] is described as follows: Drug uptake in Sprague-Dawley rat skin epidermal layer at 0.68 mg applied topically measured after 24 hrs. Format: ADME, tissue-based, Skin epidermis. The following applies: topical or ocular, read-out: Drug uptake.
Series [10] addresses Transient receptor potential cation channel subfamily A member 1 (Rattus norvegicus, UniProt Q6RI86). Nature of the series: Antagonist activity at rat TRPA1 by electrophysiology assay.
A short description of series [11]: Drug uptake in Sprague-Dawley rat skin dermal layer at 0.68 mg applied topically measured after 24 hrs. The following applies: topical or ocular, read-out: Drug uptake. Format: ADME, tissue-based, Dermis.

Chain of Transient receptor potential cation channel subfamily A member 1 (Rattus norvegicus, UniProt Q6RI86) (Q6RI86 whole entry): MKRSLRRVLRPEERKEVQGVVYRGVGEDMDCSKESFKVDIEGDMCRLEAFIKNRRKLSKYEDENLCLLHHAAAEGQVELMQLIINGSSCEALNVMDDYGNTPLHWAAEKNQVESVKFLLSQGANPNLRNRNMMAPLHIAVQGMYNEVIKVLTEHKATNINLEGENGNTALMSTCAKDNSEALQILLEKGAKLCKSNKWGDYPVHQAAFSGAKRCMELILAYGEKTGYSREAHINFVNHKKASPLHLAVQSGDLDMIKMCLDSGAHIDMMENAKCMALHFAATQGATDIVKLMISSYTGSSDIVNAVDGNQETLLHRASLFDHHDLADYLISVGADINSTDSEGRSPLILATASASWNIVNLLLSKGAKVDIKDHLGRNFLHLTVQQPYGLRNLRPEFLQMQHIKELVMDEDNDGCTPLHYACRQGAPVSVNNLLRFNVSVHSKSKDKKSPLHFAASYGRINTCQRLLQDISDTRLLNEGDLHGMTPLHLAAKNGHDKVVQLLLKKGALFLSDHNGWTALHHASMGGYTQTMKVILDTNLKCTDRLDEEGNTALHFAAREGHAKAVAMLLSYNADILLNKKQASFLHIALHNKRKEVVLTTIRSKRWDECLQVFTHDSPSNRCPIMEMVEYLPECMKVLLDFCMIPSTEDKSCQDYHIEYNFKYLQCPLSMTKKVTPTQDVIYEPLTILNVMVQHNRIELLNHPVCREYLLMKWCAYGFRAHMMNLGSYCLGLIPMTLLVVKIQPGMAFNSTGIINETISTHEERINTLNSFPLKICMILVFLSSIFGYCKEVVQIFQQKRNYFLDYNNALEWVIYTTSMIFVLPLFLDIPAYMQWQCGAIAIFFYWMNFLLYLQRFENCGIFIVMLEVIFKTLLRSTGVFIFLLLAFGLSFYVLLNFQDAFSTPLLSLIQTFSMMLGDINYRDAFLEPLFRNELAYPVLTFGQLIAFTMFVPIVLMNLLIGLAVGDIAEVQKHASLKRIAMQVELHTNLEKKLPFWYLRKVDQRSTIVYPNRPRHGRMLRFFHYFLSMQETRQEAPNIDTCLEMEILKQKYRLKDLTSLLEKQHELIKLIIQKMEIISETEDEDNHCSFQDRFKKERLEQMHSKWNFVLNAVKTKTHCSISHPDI

`O=C(NCC(Cc1ccc(F)cc1)N1CCC2(C1)CC2(F)F)C1(c2ccc(F)cc2)CCCC1` (racemic): in [1], the Papp was determined as 0.3 ×10⁻⁶ cm/s. Moreover, in series [2], the microsomal CLint at 10 µM is above 320 µL/min/mg. In series [3], this compound showed an IC50 above 10000 nM.

`CN1CCC(CC(CNC(=O)C2(c3ccc(Cl)cc3)CCCC2)N2CCC(O)(C(F)(F)F)CC2)CC1` (racemic): the Papp in series [1] worked out at 1 ×10⁻⁶ cm/s. The microsomal CLint at 10 µM in series [2] worked out at 42 µL/min/mg. The compound also yielded an IC50 in [4] of 26700 nM.

As for `O=C(NCC(Cc1ccccc1)N1CCC(O)(C(F)(F)F)C1)C1(c2ccc(F)cc2)CCC1` (racemic), the IC50 in series [4] was found to be 309 nM.

`CCCC(C)(C)C(=O)NC[C@@H](Cc1ccccc1)N1CCC(O)(C(F)(F)F)CC1` yielded an IC50 in series [3] of 71 nM.

Turning to `CCCC(C)(C)C(=O)NC[C@H](Cc1ccccc1)N1CCC(O)(C(F)(F)F)CC1`, the IC50 in [3] amounted to 1700 nM.

Take `O=C(NCC(Cc1ccc(F)cc1)N1CCC(C(F)(F)F)C1)C1(c2ccc(F)cc2)CCCC1` (racemic): the midpoint of inhibition in series [4], the IC50, lay at 1450 nM.

Turning to `CC(C)C(CNC(=O)C1(c2ccc(Cl)cc2)CCCC1)N1CCC(O)(C(F)(F)F)CC1` (racemic), the Papp in series [1] is below 1 ×10⁻⁶ cm/s. In addition, the microsomal CLint at 10 µM in series [2] is above 320 µL/min/mg. For the same compound, in [4], the IC50 was above 1000 nM.

With `O=C(NCC(Cc1ccc(F)cc1)N1CC2CCC1C2)C1(c2ccc(F)cc2)CC1` (racemic), the microsomal CLint at 10 µM in series [2] was above 320 µL/min/mg. The IC50 in series [3] was above 10000 nM.

Turning to `O=C(NCC(Cc1ccccc1)N1CCC(O)(C(F)(F)F)CC1)C1(c2ccc(Cl)cc2)CC1` (racemic), the Papp in series [1] turned out to be 2 ×10⁻⁶ cm/s. Moreover, the microsomal CLint at 10 µM in series [2] is above 320 µL/min/mg. This compound also had an IC50 in series [4] of 73 nM.

In the case of `O=C(NCC(Cc1ccccc1)N1CCC(C(F)(F)F)CC1)C1(c2ccc(F)cc2)CCCC1` (racemic), in series [1], the Papp turned out to be 6 ×10⁻⁶ cm/s. Besides, the microsomal CLint at 10 µM in series [2] came out at 238 µL/min/mg. Besides, in series [4], the concentration for half-maximal inhibition (IC50) is 673 nM.

On to `O=C(NC[C@H](Cc1ccccc1)N1CCC(O)(C(F)(F)F)CC1)C1(c2ccc(Cl)cc2)CCCC1`, for which the Papp in [1] stood at 1 ×10⁻⁶ cm/s. Also, in series [2], the microsomal CLint at 10 µM was above 320 µL/min/mg. In addition, the Ratio in series [5] turned out to be 1. The compound also returned a logD in series [6] of 4.7. Moreover, the IC50 in series [4] was 1900 nM.

In the case of `CC(C)(C(=O)NCC(Cc1ccccc1)N1CCC(O)(C(F)(F)F)CC1)C(F)(F)F` (racemic), the Papp in series [1] came to 31 ×10⁻⁶ cm/s. In addition, in series [2], the microsomal CLint at 10 µM was found to be 284 µL/min/mg. The same compound displayed a 50% inhibitory concentration (IC50) in [4] of 91 nM.

On to `Cc1nc(C(=O)NCC(Cc2ccccc2)N2CCC(O)(C(F)(F)F)CC2)c(C(F)(F)F)o1` (racemic), for which the microsomal CLint at 10 µM in series [2] was found to be 146 µL/min/mg. In addition, in [3], the IC50 was above 10000 nM.

With `O=C(NCC(Cc1ccccc1)N1CCC(O)(C(F)(F)F)CC1)c1cc(C(F)(F)F)ccn1` (racemic), the Papp in series [1] came out at 8 ×10⁻⁶ cm/s. The microsomal CLint at 10 µM in series [2] was determined as 285 µL/min/mg. The same compound registered an IC50 in series [4] of 83 nM.

Regarding `CC(C)(C)c1ccc(CC(=O)NCC(Cc2ccccc2)N2CCC(O)(C(F)(F)F)CC2)cc1` (racemic), the microsomal CLint at 10 µM in series [2] was above 320 µL/min/mg. Besides, the IC50 in series [3] is above 10000 nM.

Consider `O=C(NCC(Cc1ccccc1)N1CCC(O)(C(F)(F)F)CC1)C1(c2ccc(Cl)cc2)CCCC1` (racemic), for which, in series [1], the Papp worked out at 1 ×10⁻⁶ cm/s. In addition, the outcome in the series on Rattus norvegicus [7] and in the series with Rattus norvegicus [8] was Active. Besides, in series [2], the microsomal CLint at 10 µM is above 320 µL/min/mg. In addition, the IC50 in series [4] is 17 nM; in series [3], 374 nM.

Turning to `CN1CCN(C(CNC(=O)C2(c3ccc(Cl)cc3)CCCC2)Cc2ccccc2)CC1` (racemic), the Papp in series [1] was determined as 3 ×10⁻⁶ cm/s. In series [2], the microsomal CLint at 10 µM is above 320 µL/min/mg. The same compound showed an IC50 in [4] above 3000 nM.

On to `O=C(NCC(Cc1ccc(F)cc1)N1CCC2(CC1)COC2)C1(c2ccc(F)cc2)CCCC1` (racemic), for which the microsomal CLint at 10 µM in [2] was above 320 µL/min/mg. For the same compound, in series [3], the half-inhibitory concentration (IC50) is above 10000 nM.

With `O=C(NC[C@H](Cc1ccccc1)N1CCC(O)(C(F)(F)F)CC1)C1(c2ccc(Cl)cc2)CC1`, in series [2], the microsomal CLint at 10 µM is above 320 µL/min/mg. In addition, in [4], the midpoint of inhibition, the IC50, lay at 474 nM.

In the case of `O=C(NCC(Cc1ccc(F)cc1)N1C2CCC1CC(O)(C(F)(F)F)C2)C1(c2ccc(F)cc2)CCCC1` (racemic), the microsomal CLint at 10 µM in series [2] is above 320 µL/min/mg. The same compound returned an IC50 in [4] of 825 nM.

Regarding `CN(CC(Cc1ccccc1)N1CCC(O)(C(F)(F)F)CC1)C(=O)C1(c2ccc(Cl)cc2)CCCC1` (racemic), the microsomal CLint at 10 µM in series [2] was above 320 µL/min/mg. The compound also gave an IC50 in series [4] above 1000 nM.

As to `CC1(C(=O)NCC(Cc2ccccc2)N2CCC(O)(C(F)(F)F)CC2)CCCCC1` (racemic), the microsomal CLint at 10 µM in series [2] is above 320 µL/min/mg. For the same compound, in series [4], the IC50 turned out to be 851 nM.

As to `O=C1CCC2(CCN(C(CNC(=O)C3(c4ccc(F)cc4)CC3)Cc3ccc(F)cc3)CC2)N1` (racemic), in [2], the microsomal CLint at 10 µM is 168 µL/min/mg. The IC50 in series [3] was above 10000 nM.

Regarding `O=C(NCC(Cc1ccc(F)cc1)N1CCC(O)C1)C1(c2ccc(F)cc2)CCCC1` (racemic), the microsomal CLint at 10 µM in series [2] was found to be 170 µL/min/mg. The compound further registered an IC50 in series [3] above 10000 nM.

On to `O=C(NCC(Cc1ccccc1)N1CCC(O)(C(F)(F)F)CC1)C1(C(F)(F)F)CC1` (racemic), for which the microsomal CLint at 10 µM in [2] is 149 µL/min/mg. Also, in series [4], 1000 nM corresponded to half-maximal inhibition (IC50).

`CC(C)(C)[C@H]1CC[C@H](C(=O)NCC(Cc2ccccc2)N2CCC(O)(C(F)(F)F)CC2)CC1` (mixture of isomers): the microsomal CLint at 10 µM in [2] is above 320 µL/min/mg. Besides, the concentration for half-maximal inhibition (IC50) in series [4] came to 101 nM.

Consider `CC(C)c1csc(C(=O)NCC(Cc2ccccc2)N2CCC(O)(C(F)(F)F)CC2)n1` (racemic), for which the microsomal CLint at 10 µM in series [2] was above 320 µL/min/mg. In [4], this compound showed an IC50 of 159 nM.

Take `O=C(NC[C@@H](Cc1ccccc1)N1CCC(O)(C(F)(F)F)CC1)C1(c2ccc(Cl)cc2)CC1`: the microsomal CLint at 10 µM in series [2] was above 320 µL/min/mg. The compound also showed an IC50 in series [4] of 53 nM.

Consider `O=C(NCC(CC1CCOCC1)N1CCC(O)(C(F)(F)F)CC1)C1(c2ccc(Cl)cc2)CCCC1` (racemic), for which the Papp in series [1] is 3 ×10⁻⁶ cm/s. Moreover, the microsomal CLint at 10 µM in series [2] was above 320 µL/min/mg. In addition, the IC50 in series [4] is 1900 nM.

Turning to `O=C(NCC(c1ccccc1)N1CCC(O)(C(F)(F)F)CC1)C1(c2ccc(Cl)cc2)CC1` (racemic), in series [1], the Papp was 4 ×10⁻⁶ cm/s. Also, in series [2], the microsomal CLint at 10 µM is above 320 µL/min/mg. The compound also had a half-inhibitory concentration (IC50) in [4] above 3000 nM.

Take `O[C@]12CCCC[C@@H]1CCC[C@H]2Nc1ccc(F)cc1`: the concentration at 24 h in series [9] amounted to 86000 ng/g; in [11], 232000 ng/g. Besides, the half-inhibitory concentration (IC50) in series [4] is 10 nM; in series [10], 8 nM.

With `O=C(NCC(Cc1ccccc1)N1CCN(c2ccccn2)CC1)C1(c2ccc(Cl)cc2)CCCC1` (racemic), the Papp in [1] was below 1 ×10⁻⁶ cm/s. In addition, the microsomal CLint at 10 µM in series [2] amounted to 312 µL/min/mg. In series [4], this compound showed an IC50 above 1000 nM.
